In brackets after ≈: the same amount, converted by molar mass.
Key:
RAW264.7 = assay: Antiinflammatory activity in mouse RAW264.7 cells assessed as inhibition of LPS-induced NO release; assay type: functional, cell-based
[1] = Antiproliferative activity against human QGY7703 cells; assay type: functional, cell-based; conditions: QGY-7703
LoVo = assay: Antiproliferative activity against human LoVo cells; assay type: functional, cell-based
[2] = Inhibition of TNF-alpha-induced NF-kappaB activity in human pNF-kappaB-luc-293 cells; assay type: cell-based; conditions: HEK293

SMILES | IC50 (RAW264.7) | IC50 (LoVo) | IC50 [2] | IC50 [1]
COC(C)(C)c1ccc2c(c1)[C@H](O)C[C@H]1[C@](C)(C(=O)O)CCC[C@]21C [ABIESADINE O] | > 100 mg/L | > 25 mg/L | > 100 mg/L | > 25 mg/L
CCOC(C)(C)c1ccc2c(c1)CC[C@H]1[C@](C)(C(=O)O)CCC[C@]21C [ABIESADINE P] | 94.1 mg/L (≈ 273 µM) | > 25 mg/L | > 100 mg/L | > 25 mg/L
CC(C)c1ccc2c(c1)C(=O)C[C@H]1[C@](C)(COC(=O)CCC(=O)O)CCC[C@]21C [ABIESADINE Q] | > 100 mg/L | > 25 mg/L | > 100 mg/L | > 25 mg/L
CC(C)(O)c1ccc2c(c1)C(=O)C[C@H]1[C@](C)(COC(=O)CCC(=O)O)CCC[C@]21C [ABIESADINE R] | > 100 mg/L | > 25 mg/L | > 100 mg/L | > 25 mg/L
COC(=O)CCC(=O)OC[C@]1(C)CCC[C@]2(C)c3ccc(C(C)(C)O)cc3C(=O)C[C@@H]12 [ABIESADINE S] | 49 mg/L (≈ 114 µM) | > 25 mg/L | > 100 mg/L | > 25 mg/L
CC(C)[C@]12C=C3CC[C@H]4[C@](C)(COC(=O)CCC(=O)O)CCC[C@]4(C)[C@@]3(CC1)OO2 [ABIESADINE W] | > 100 mg/L | > 25 mg/L | > 100 mg/L | > 25 mg/L
C=C[C@@](C)(O)CCC1C(=C)CC[C@H]2[C@](C)(COC(=O)CCC(=O)O)CCC[C@]12C (some centres not stated) [ABIESADINE X] | > 100 mg/L | > 25 mg/L | > 100 mg/L | > 25 mg/L
C=C[C@@](C)(O)CC[C@H]1C(=C)CC[C@H]2[C@](C)(COC(=O)CCC(=O)OC)CCC[C@]12C [ABIESADINE Y] | 48.5 mg/L (≈ 115 µM) | 10.6 mg/L (≈ 25.2 µM) | 22.4 mg/L (≈ 53.3 µM) | > 25 mg/L

Further lines, with some results ahead:

IC50 (RAW264.7) | IC50 (LoVo) | IC50 [2] | SMILES | IC50 [1]
> 100 mg/L | > 25 mg/L | > 100 mg/L | CC(C)C1=CC2=CC[C@@H]3[C@](C)(CCC[C@@]3(C)C(=O)O)[C@H]2CC1 [ABIETIC ACID] | > 25 mg/L
42.7 mg/L (≈ 142 µM) | > 25 mg/L | > 100 mg/L | CC(C)c1ccc2c(c1)CC[C@H]1[C@](C)(C(=O)O)CCC[C@]21C [DEHYDROABIETIC ACID] | > 25 mg/L
11 mg/L (≈ 37.9 µM) | > 25 mg/L | > 100 mg/L | C=C[C@@](C)(O)CC[C@H]1C(=C)CC[C@H]2C(C)(C)CCC[C@]12C [MANOOL] | > 25 mg/L
> 100 mg/L | 9.2 mg/L (≈ 32.1 µM) | > 100 mg/L | CC(C)c1ccc2c(c1)CC[C@H]1[C@](C)(CO)CCC[C@]21C [POMIFERIN A] | > 25 mg/L
> 100 mg/L | 24.3 mg/L (≈ 79.3 µM) | > 100 mg/L | C=C[C@@](C)(O)CCC1C(=C)CC[C@H]2[C@](C)(CO)CCC[C@]12C (some centres not stated) [TORREFEROL] | > 25 mg/L
